≈ marks a conversion by molar mass, not a printed value. Numbered stars: 1 amine (or outer) side, 2 acyl side, 3 side chain; on linkers, the order of the positions; unused ones are H or OH. Square brackets hold non-standard residues; d marks the D form. Peptide text beside a SMILES is read from it. dAla(ψthiazole) = C[C@@H](N[*:1])c1nc(C(=O)[*:2])cs1; Trp(4-OMe) = COc1cccc2[nH]cc(C[C@H](N)C(=O)O)c12; X1 = CC(=O)[C@](C)(N[*:1])C(=O)[*:2]; dNMeY = CN[C@H](Cc1ccc(O)cc1)C(=O)O; Dhb = C/C=C(\N)C(=O)O; Sar = CNCC(=O)O
How the values were obtained:
Human alphaherpesvirus 1 [1] = test: Antiviral activity against HSV-1 infected in African green monkey Vero cells by plaque reduction assay; format: functional, organism-based; conditions: Human alphaherpesvirus 1, Vero
Human alphaherpesvirus 2 = test: Antiviral activity against HSV-2 186 infected in African green monkey Vero cells assessed as reduction in virus induced cytopathogenicity by plaque reduction assay; format: functional, organism-based; conditions: Human alphaherpesvirus 2, Vero
Human alphaherpesvirus 3 = test: Antiviral activity against VZV infected HFF cells assessed as reduction in viral replication; format: functional, organism-based; conditions: Human alphaherpesvirus 3, HFF
[2] = Cytotoxicity against African green monkey Vero cells assessed as reduction in cell viability measured after 72 hrs by MTT assay; format: toxicity, cell-based; conditions: chlorocebus sabaeus
[3] = tested on: Human immunodeficiency virus 2; test: Antiviral activity against HIV-2 ROD infected in human MT4 cells assessed as protection against virus induced cytopathic effect and measured after 5 days by MTT spectrophotometric assay; format: functional, organism-based; conditions: Human immunodeficiency virus 2, ROD, MT4, 120 h
[4] = tested on: Human immunodeficiency virus 1; test: Antiviral activity against wild type HIV-1 IIIB infected in human MT4 cells assessed as protection against virus-induced cytopathic effect incubated for 5 days by MTT assay; format: functional, organism-based; conditions: Human immunodeficiency virus 1, IIIB, MT4, 120 h
[5] = tested on: Human immunodeficiency virus 1; test: Antiviral activity against HIV1 A17 infected in human C8166 cells assessed as protection against virus-induced cytopathic effect incubated for 5 days by MTT assay; format: functional, organism-based; conditions: Human immunodeficiency virus 1, A17, C8166, 120 h
[6] = tested on: Human immunodeficiency virus 1; test: Antiviral activity against HIV1 9495 infected in human C8166 cells assessed as protection against virus-induced cytopathic effect incubated for 5 days by MTT assay; format: functional, organism-based; conditions: Human immunodeficiency virus 1, 9495, C8166, 120 h
[7] = tested on: Human immunodeficiency virus 2; test: Antiviral activity against HIV-2 ROD infected in C8166 cells assessed as reduction in viral replication measured after 3 days by ELISA; format: functional, organism-based; conditions: Human immunodeficiency virus 2, ROD, C8166, 72 h
[8] = tested on: Human immunodeficiency virus 2; test: Antiviral activity against wild type HIV-2 CBL-20 infected in human MT4 cells assessed as protection against virus-induced cytopathic effect incubated for 5 days by MTT assay; format: functional, organism-based; conditions: Human immunodeficiency virus 2, CBL-20, MT4, 120 h
[9] = Cytotoxicity against human MT4 cells assessed as reduction in cell viability incubated for 5 days by MTT assay; format: toxicity, cell-based; conditions: time 5 day
Human alphaherpesvirus 1 [10] = test: Antiviral activity against HSV-1 at 25 uM relative to control; format: functional
[11] = molecular target: Human immunodeficiency virus type 1 reverse transcriptase (Human immunodeficiency virus 1, UniProt Q72547); test: Inhibition of HIV-1 NL4-3 reverse transcriptase by RT-PCR analysis
A549 = test: Cytotoxicity against human A549 cells assessed as reduction in cell growth incubated for 5 days by MTS assay; format: functional; conditions: A549, 120 h, time 5 day
Human alphaherpesvirus 1 [12] = test: Antiviral activity against HSV-1 106 infected in African green monkey Vero cells assessed as reduction in virus induced cytopathogenicity by plaque reduction assay; format: functional, organism-based; conditions: Human alphaherpesvirus 1, 106, Vero
Human alphaherpesvirus 1 [13] = test: Antiviral activity against HSV-1 KOS infected in African green monkey Vero cells assessed as reduction in virus induced cytopathogenicity by plaque reduction assay; format: functional, organism-based; conditions: Human alphaherpesvirus 1, KOS
Human alphaherpesvirus 1 [14] = test: Antiviral activity against HSV-1 153 infected in African green monkey Vero cells assessed as reduction in virus induced cytopathogenicity by plaque reduction assay; format: functional, organism-based; conditions: Human alphaherpesvirus 1, 153, Vero
Human alphaherpesvirus 1 [15] = test: Antiviral activity against HSV-1 blue infected in African green monkey Vero cells assessed as reduction in virus induced cytopathogenicity by plaque reduction assay; format: functional, organism-based; conditions: Human alphaherpesvirus 1, blue
Influenza A virus = test: Antiviral activity against influenza A virus (H1N1/A/WSN/33) infected in MDCK cells assessed as inhibition of cytopathic effect incubated for 48 hrs by MTT assay; format: functional, organism-based; conditions: H1N1/A/WSN/33, MDCK
[16] = tested on: Human immunodeficiency virus 1; test: Antiviral activity against HIV1; format: functional, organism-based
[17] = Cytotoxicity against African green monkey Vero E6 cells assessed as reduction in cell growth incubated for 24 hrs by WST-8 assay; format: toxicity, cell-based, Vero C1008; conditions: chlorocebus sabaeus
SARS-CoV-2 [18] = test: microbe, parasite or virus in culture; conditions: Severe acute respiratory syndrome coronavirus 2, NRC-03-nhCoV, Vero C1008, 72 h
[19] = molecular target: T1, Replicase polyprotein 1ab (Severe acute respiratory syndrome coronavirus 2, UniProt P0DTD1); test: Inhibition of SARS-CoV-2 3CL protease by FRET assay
SARS-CoV-2 [20] = test: Antiviral activity against SARS-CoV-2 B.1.1.7 infected in human Calu-3 cells assessed as inhibition of viral infection measured after 48 hrs by Hoechst 33342 staining based analysis; format: functional, organism-based; conditions: Severe acute respiratory syndrome coronavirus 2, B.1.1.7, Calu-3, 48 h
SARS-CoV-2 [21] = test: Antiviral activity against SARS-CoV-2 […] B.1.351 Beta infected in human 293TA cells assessed as reduction of viral growth measured after 48 hrs by luciferase assay; format: functional, organism-based; conditions: Severe acute respiratory syndrome coronavirus 2, […] B.1.351 Beta
Calu-3 = test: Cytotoxicity against human Calu-3 cells assessed as reduction in cell viability measured after 48 hrs by Hoechst 33342 staining based analysis; format: functional
SARS-CoV-2 [22] = test: Antiviral activity against SARS-CoV-2 RG2674 infected in African green monkey Vero cells assessed as reduction in virus-induced cytopathic effect incubated for 5 days by microscopic analysis; format: functional, organism-based; conditions: Severe acute respiratory syndrome coronavirus 2, RG2674, Vero, 120 h
[23] = molecular target: T1, Replicase polyprotein 1ab; test: Inhibition of SARS-CoV-2 3CL protease

With `CCCCCCCCCc1oc2c(O)ccc(-c3oc4cc(O)cc(O)c4c(=O)c3O[C@@H]3O[C@H](CO)[C@H](O)[C@H](O)[C@H]3O)c2c1C=O` the EC50 (Human alphaherpesvirus 1 [1]) was 23.5 µM, the EC50 (Human alphaherpesvirus 2) was 36.4 µM and the EC50 (Human alphaherpesvirus 3) was 23.5 µM. The CC50 at 72 h [2] was 166 µM.

In the case of `C=C(C)[C@@]12O[C@@]3(/C=C/C=C/C=C/CCC)O[C@@H]1[C@@H]1[C@@H]4O[C@]4(CO)[C@@H](O)[C@]4(O)C(=O)C(C)=C[C@H]4[C@@]1(O3)[C@H](C)[C@H]2OC(=O)/C=C/c1ccc(O)cc1`, the EC50 [3] is reported as greater than 0.034 µM.

`C=C(C)[C@]1(O)C[C@@H](C)[C@@]2(O)[C@H]([C@H]1OC(=O)/C=C/C=C/CCCCC)[C@@H]1O[C@]1(CO)[C@@H](O)[C@]1(O)C(=O)C(C)=C[C@H]12` gave an EC50 [4] of 0.00872 µg/mL (≈ 0.016 µM), an EC50 [5] of 0.00381 µg/mL (≈ 0.00697 µM) and an EC50 [6] of 0.0157 µg/mL (≈ 0.0286 µM). It also gave an EC50 [7] of 0.0189 µg/mL (≈ 0.0345 µM), an EC50 [8] of 0.0319 µg/mL (≈ 0.0584 µM) and a CC50 at 120 h [9] of 65.6 µg/mL (≈ 120 µM).

Work on `C=C1CC[C@]2(O)[C@H]1CC1=C(C)C(=O)OC1=C[C@]2(C)O` yielded an Activity (Human alphaherpesvirus 1 [10]) of 69.2%.

In the case of `COc1ccc(C[C@@H](CO)[C@H](COC(C)=O)Cc2ccc(OC)c(OC)c2)cc1OC`, the IC50 [11] is reported as 12.2 µM and the CC50 (A549) is reported as 11.6 µg/mL (≈ 26.8 µM).

Work on `COc1ccc(C[C@@H]2NC(=O)[C@@H]3CCCN3C(=O)[C@H](C(C)C)NC(=O)[C@@H](Cc3ccc(O)cc3)N(C)C(=O)[C@H](Cc3ccc(OC)cc3)NC2=O)cc1` (cyclo(PY(Me)Y(Me)[dNMeY]V)) yielded an EC50 (Human alphaherpesvirus 1 [12]) of 10.4 µM, a CC50 at 72 h [2] of 209 µM and an EC50 (Human alphaherpesvirus 1 [13]) of 7.9 µM. For the same compound, the EC50 (Human alphaherpesvirus 1 [14]) was 8.28 µM and the EC50 (Human alphaherpesvirus 1 [15]) was 7.9 µM.

In the case of `C/C=C1\NC(=O)[C@@H](C)NC(=O)CNC(=O)[C@](C)(C(C)=O)NC(=O)[C@H](Cc2c[nH]c3cccc(OC)c23)NC(=O)c2csc(n2)[C@@H](C)NC(=O)CN(C)C1=O` (cyclo([Dhb][Sar][dAla(ψthiazole)][Trp(4-OMe)][X1]G[dA])), the EC50 (Influenza A virus) is reported as 0.3 µM.

With `O=c1cc(-c2ccc(O)c(-c3c(O)cc(O)c4c(=O)cc(-c5ccc(O)cc5)oc34)c2)oc2cc(O)cc(O)c12` [AMENTOFLAVONE] the EC50 [16] was 8.3 µM.

`O=C(O)[C@H]1O[C@@H](Oc2cc3oc(-c4ccccc4)cc(=O)c3c(O)c2O)[C@H](O)[C@@H](O)[C@@H]1O` [BAICALIN] showed a CC50 at 24 h [17] greater than 200 µM and an EC50 (SARS-CoV-2 [18]) of 27.9 µM.

With `CC(C)=CCC/C(C)=C/COc1c2ccoc2cc2oc(=O)ccc12` [BERGAMOTTIN] the IC50 [19] was 9.64 µM, the IC50 (SARS-CoV-2 [20]) was 8.15 µM and the IC50 (SARS-CoV-2 [21]) was 14.2 µM. It also gave a CC50 (Calu-3) greater than 100 µM.

For `Nc1ncnc2c1ncn2[C@@H]1O[C@H](CO)C[C@H]1O` [CORDYCEPIN], the EC50 (SARS-CoV-2 [22]) was 2 µM.

`COc1cc(O)c(C(=O)[C@@H]2[C@H](CC=C(C)C)C(C)=CC[C@H]2c2ccccc2)c(O)c1` [PANDURATIN A] showed a CC50 at 24 h [17] of 14.7 µM and an IC50 [23] of 0.81 µM.
